Source: patent US6767738B1, “Method of isolating adult mammalian CNS-derived progenitor stem cells using density gradient centrifugation” (The Salk Institute for Biological Studies, priority 1999, dated 2004)

Key:
clonal stem cells (AP14) = assay: BrdU labeling of ACSC cultures during RA treatment; type: cell-based, rat
Protocol: Cell Culture. For proliferating conditions, clonal stem cells (AP14) were cultured in Dulbecco's Modified Eagles Medium/Ham's F12 (DMEM/F12, 1:1) containing N2 supplement (Gibco BRL, Gaithersburg, Md.) and 20 ng/ml rhFGF-2 (provided by A. Baird, Prizm Pharmaceuticals Inc., La Jolla, Calif.). Culture dishes (Becton Dickinsin Labware, Lincoln Park, N.J.) were coated with polyomithine and mouse laminin as previously described by Ray, et al., Proliferation, differentiation and long-term culture of primary hippocampal neurons, Proc Natl Acad Sci USA 90:3602-3606 (1993). For differentiation experiments, cells were plated into polyornithine/laminin coated glass chamber slides (Nunc, Naperville, Ill.) at a density of 2.5—103 per cm2. The cells were incubated for 24 hrs in normal N2 medium containing 20 ng/ml FGF-2, and then the medium was replaced by N2 medium containing 0.5% […] (FBS) and 0.01% DMSO (control solvent) or […] all-trans retinoic acid (Sigma, St. Louis, Mo.). For further differentiation, the medium was replaced by N2 medium containing 0.5% FBS and one of the following: sterile water (control solvent), mouse 2.55 NGF (50 ng/ml, Boehringer Mannheim, Indianapolis, Ind.), rhBDNF (20 ng/ml, Alomone Labs, Jerusalem, Israel), rhNT-3 (40 ng/ml, Genentech, South San Francisco, Calif.). The medium was replaced every two days. For inhibition of the tyrosine kinase activity of the Trk receptors, K-252a (100 nM, Calbiochem, San Diego, Calif.) was added to the medium.
BrdU Labeling and Visualization. Cells plated as described above were treated with BrdU ([…], Sigma) for 24 hrs before fixation. Then the cells were fixed with tris-buffered 4% paraformaldehyde for 15 min. incubated with tris-buffered 0.6% H2O2 for 30 min, and treated with 50% formamide/2×SSC for 2 hrs followed by a 30-min incubation in 2N HCl, and a neutralization in 0.1M borate (Na2B4O7) for 10 min. Cells were incubated with a-BrdU monoclonal antibody (1:400, Boehringer Mannheim) overnight at 4° C., and incubated with biotinylated horse anti-mouse secondary antibody (1:80, Jackson Immunoresearch, West Grove, Pa.) for 1 hr. Reactive cells were visualized with the avidin/biotin-peroxidase system (Vectastain Elite, Vector Laboratories, Burlingame, Calif.) and diaminobenzidine.
Upregulation of p21 was accompanied by a decrease in the number of dividing cells as evidenced by BrdU incorporation. Cultures were treated with RA for 2, 4, or 6 days and then pulsed with […] bromodeoxyuridine (BrdU) for 24 hrs on the last day of RA treatment. Cells were then fixed and processed for BrdU immunocytochemistry. In the presence of RA, there was a dramatic change in cell morphology, and a gradual decrease in the total number and proportion of BrdU-positive cells. Within 6 days of RA treatment, most of the phase-bright cells extended elaborate processes and only 29% of the cells were BrdU-positive, whereas in the serum-alone control treatment most of the cells continued to proliferate and retained rudimentary process morphology. In proliferative FGF-2-stimulated controls, more than 95% of the cells were labeled every 24 hrs.
Although proliferation decreased in response to RA, it is possible that the few remaining proliferating cells were contributing to the increase in neurons observed following RA treatment. To determine if RA induced a selective expansion of neuronal precursors, parallel cultures were treated with RA for 6 days followed by an additional 6 days in 0.5% serum alone. One set of cultures was fixed on days 2, 4, 6, 8, 10, and 12 and stained with 4,6-diamidino-2-phenylindole (DAPI) and the total number of nuclei was counted. Additional cultures were pulsed with BrdU for 72 hrs on days 0-3, 3-6, 6-9 or 9-12. The cultures were then fixed on day 12 and evaluated for the proportion of Map2ab-IR cells that had incorporated BrdU. […]

[1] = tested on: optic nerve low-buoyancy cells; assay: Neuron generation from optic nerve low-buoyancy cells; type: cell-based, rat; details: 14 days high FGF-2, then 14 days differentiation; mean +/- s.e.m., n=5
Excerpt: Tissue dissection: Three areas were dissected from adult rat brains as follows. Rats (170-190 g Fisher 344 males or females, Harlan) were deeply anesthetized with a mixture of ketamine, xylazine, and acepromazine. Animals were decapitated and whole brains removed. First, ˜1.5 mm of each optic nerve were harvested rostral to, but not including, the optic chiasma. The brain was then bisected longitudinally and each hippocampal lobe separated from the overlaying cortical white matter using the natural separation line along the alveus hippocampus. The white matter of the fimbria and subiculum was removed as much as possible. Some white matter remained. Finally, a 1.5 mm wide cortical ribbon containing parietal and frontal segments was dissected longitudinally, proximal to the central fissure. The pial and callosal surfaces were trimmed from each cortical ribbon to remove a majority of the meninges and white matter. […]
To determine if there were progenitors in the optic nerve with a latent ability to generate neurons, optic nerve was harvested, dissociated and fractioned. […] On day 28, cultures were calculated for the presence of neurons (β Tubulin) and those neurons present were scored for BrdU-immunoreactivity. Although many glia rapidly differentiated in the primary culture, clusters of proliferative precursor-like calls were readily detected. […]

| Molecule | Map2ab-IR neurons that divided (BrdU) (clonal stem cells (AP14); after 6 days of RA treatment) [%] | Map2ab-IR cells that divided (BrdU) (clonal stem cells (AP14); days 3-6 of RA treatment) | neurons labeled with BrdU (clonal stem cells (AP14); first 24 hours upon application of RA) | neurons labeled with BrdU (clonal stem cells (AP14); second day following RA treatment) | Map2ab-IR cells that divided (BrdU) (clonal stem cells (AP14); three days immediately following start of RA treatment, 72 hr pulse) | BrdU-positive cells (clonal stem cells (AP14); within 6 days of RA treatment, 24 hr BrdU pulse) [%] | cells labeled every 24 hrs (BrdU) (clonal stem cells (AP14); proliferative FGF-2-stimulated controls) | β Tubulin-positive neurons, of the total population [1] [% +/− 0.3] |
| --- | --- | --- | --- | --- | --- | --- | --- | --- |
| CC1=C(/C=C/C(C)=C/C=C/C(C)=C/C(=O)O)C(C)(C)CCC1 [RA, all-trans retinoic acid] | < 0.5 | Less than 5% | 19 +/− 3% | 3 +/− 1% | Less than one third | 29 |  |  |
| FGF-2: basic fibroblast growth factor, human recombinant, prepared in E. coli |  |  |  |  |  |  | more than 95% | 0.8 |
